# Measured values: US10138292B2, “Cell culture medium” (BIOLAMINA AB, priority 2010, dated 2018)
# Key:
# Assay type in all cases: cell-based, human
# hES cells [1] = experiment: Cell survival assay, 24 hours (Example 2)
# Procedure: The survival assay was performed as described for the cell adhesion assay above, except that the cells were left in the cell incubator for 24 hours. For inhibition of survival assay, the cells were kept in a medium with function blocking antibodies at the concentrations recommended by the manufacturer or pathway inhibitors at concentrations indicated in the text for 30 minutes, and then plated on the coated dishes. All the experiments were performed in quadruplicate.
# Pluripotent hES cells express α1, α5, β1, β2 and γ1 laminin chains. To compare the adhesion and clonal survival of hES cells plated from single cell suspension to different coating substrata, hES cells growing as monolayers on LN-511 or as clusters on a feeder layer were trypsinized into single cell suspension in O3 medium and plated on cell culture dishes coated with Matrigel, LN-111, LN-511, LN-521 or a mixture of LN-511 and LN-521, in the absence or presence of a ROCK inhibitor (Y-27632) and analyzed after 24 hours.
# hES cells [2] = experiment: Clonal survival of individualized hES cells (Example 4); settings: mTeSR1 medium, 250 cells per cm^2, 5 days, alkaline phosphatase staining
# Procedure: hES cells were plated in mTeSR1 medium on different coatings at a density of 250 cells per cm^2 and monitored after 5 days in culture using an alkaline phosphatase staining kit.
# Next, combinations of laminin-521 and E-Cadherin were tested to determine whether the combinations could sustain clonal survival of the cells. Fixed amounts of laminin-521 were used for the cell culture dish coating in combination with titrated E-Cadherin.
# Additional tests were performed to test the effects of various modifications to the mTeSR1 medium. A mixture of E-Cadherin to laminin-521 in a ratio of about 1:10 w/w was used to coat the plates. […] Time-lapse photography of the cells confirmed that laminin-521/E-Cadherin coatings facilitated cell survival through proliferation of the single cells, not through the aggregation of different cells.
# [3] = tested on: phosphorylated myosin light chain (P-MLC); experiment: Western blot of phosphorylated myosin light chain; settings: one and six hours after plating
# Procedure: HS 181 cells were trypsinized into single cell suspension as described above. For inhibition experiments, the cells were kept in O3 medium with blocking antibodies or pathway inhibitors for 30 minutes and then 450K cells were plated on 35 mm dishes precoated with the appropriate matrix coating. For other experiments, same number of cells was plated directly after trypsinization. […] After two washings in ice-cold PBS, the plates with cells were snap frozen in liquid nitrogen and stored at −80° C. To prepare samples for western blots and ELISA, the plates were slowly thawed and kept on ice with 100-150 μl of lysis buffer (50 mM Tris-HCl, pH7.5, 150 mM NaCl, 0.5% deoxycholate, 0.5% SDS, 1% Triton X-100, 1% Igepal, Complete™ (Roche) and Phospho-Stop™ (Roche)) on top. Then, the cells were scraped, pipetted and sheared through a 27G ¾″ needle. After that, the cell pellets were clarified by centrifugation at 16,100 rcf for 15 minutes at 4° C. For western blots, 4-12% gradient gels were used for SDS electrophoresis and the proteins were transferred to PVDF membranes. The membrane was hybridized with the antibody of interest according to the manufacturer's instructions. Chemoluminescent HRP-substrate from Amersham Biosciences was used for visualization. For the densitometry analysis the films were scanned at 2,400 dpi and analyzed by the Chemilmager5500 program (1D-Multi Line densitometry mode). […]
# hES cells [4] = experiment: Cell adhesion assay, 1 hour (Example 2); settings: not shown
# Procedure: Tissue cell culture plates were coated overnight at 4° C. with sterile solutions of the ECM proteins, such as human recombinant LN-521, all at a concentration of 30 μg/ml (5 μg/cm^2). Control plates were coated with Matrigel according to the STEMCELL Technologies' instructions. Prior to use, dishes were pre-warmed in an incubator for one hour after which prewarmed O3 medium was added without additional washing of the dish. After applying a fresh LN-521 solution to a new dish, the remaining LN-521 solution could be used at least once more. All the adhesion, survival, and inhibition of survival experiments were carried out using fresh coating materials.
# Briefly, 96-well plates were coated by extracellular matrix proteins as described above and blocked by O3 medium containing bovine serum albumin. The ES cells were plated at cell density of 50,000 cells/cm^2 onto extracellular matrix-coated plates and left to adhere for 1 hour in a cell incubator. After that the plates were washed 3 times with the medium to remove the non-adherent cells, and then the adherent cells were fixed for 20 minutes by 5% glutaraldehyde, stained by 0.1% Crystal Violet. (Kebo Lab, Spanga, Sweden, http://www.kebolab.se). After one hour and 3 washes with water, Crystal Violet was extracted with 10% acetic acid and quantified by measuring optical density at 570 nm. All the experiments were performed in quadruplicate.
substance,measurement,setting,value
"LN-521: protein formed by joining α5, β2 and γ1 laminin chains; human recombinant, produced in HEK293 cells",survival of Y-27632 treated cells compared with Matrigel,"hES cells [1]; 10 μM of Y-27632, 40,000 cells per 1 cm^2",survived better
same,survival compared with LN-511,"hES cells [1]; 24 hours, absence of ROCK inhibitor",significantly higher
same,survival after 24 hours relative to Matrigel,hES cells [1]; dissociated hES cells,approximately 20 times
same,survival relative to Matrigel,hES cells [1]; exogenous bFGF removed from the O3 medium,20 times
same,survival 24 hours after plating,"hES cells [1]; medium lacking bFGF, LiCl, GABA, pipecolic acid and TGFβ",survived
same,survival 24 hours after plating,"hES cells [1]; single cell suspension, O3 medium, absence of ROCK inhibitor",did so as single cells
same,clonal survival of individualized hES cells,hES cells [2],Neither laminin-521 nor E-Cadherin alone permitted efficient clonal survival
same,phosphorylation of MLC compared with cells on Matrigel and LN-111,[3],even higher
same,spreading of the cells after one hour compared with Matrigel or LN-111,hES cells [4],clearly better
